13 compounds from ChEMBL document CHEMBL1201862, “PubChem BioAssay data set” (2004) can be followed below.

Among the test systems are ACHN; COLO 205; HCT-116; HCT-15; HOP-92; MDA-N; MOLT-4; NCI-H226; NCI/ADR-RES; OVCAR-3; OVCAR-4; OVCAR-5; SF-539; SK-MEL-2; SNB-75; UACC-62; Malme-3M; SR.
Common to all, as to assay: NCI-60 cell line screen, 48 h

The structures appear in SMILES notation.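 Briefly, cells in 96-well plates were exposed to five compound concentrations for 48 h, and endpoints were estimated by linear interpolation. Abbreviation: GI50, concentration required for 50% inhibition of growth.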 Calls of active or inactive are those of the source. Cut-off read from the data, not from the text of the source: active = GI50 up to about 1.1 µM and inactive = higher. Where only a bound is given, the exact number is not on record here.

For the compound `Oc1nc2c(c(-c3ccccc3Cl)n1)COC/C2=C\c1ccccc1Cl`, the GI50 in the assay with ACHN was > 100 µM (inactive); in the assay on COLO 205, > 100 µM (inactive); in the assay on HCT-116 it was > 100 µM (inactive); with HCT-15, > 100 µM; in the assay on HOP-92, > 100 µM (inactive); in the assay on MDA-N, > 100 µM (inactive). Further, the GI50 with MOLT-4 was 55.5 µM (inactive); in the assay with NCI-H226, > 100 µM (inactive); in the assay on NCI/ADR-RES, > 100 µM (inactive); with OVCAR-3, > 100 µM (inactive); in the assay with OVCAR-4 it was > 100 µM (inactive); with OVCAR-5, > 100 µM (inactive). The GI50 is > 100 µM (inactive) in the assay with SF-539, > 100 µM (inactive) in the assay on SK-MEL-2, 38.9 µM (inactive) with SNB-75 and > 100 µM (inactive) in the assay on UACC-62.

For `CCOC(=O)C(NC(=O)c1cccc(Cl)c1)(Nc1ccc(S(=O)(=O)Nc2cc(C)nc(C)n2)cc1)C(F)(F)F` (stereo not given), the GI50 is > 100 µM (inactive) in the assay with ACHN; > 100 µM (inactive) in the assay on COLO 205; > 100 µM (inactive) in the assay on HCT-116; > 100 µM in the assay with HCT-15; 80.5 µM (inactive) in the assay with HOP-92; > 100 µM (inactive) in the assay on MOLT-4. Moreover, the GI50 in the assay with Malme-3M, in the assay with NCI-H226, in the assay on NCI/ADR-RES, in the assay with OVCAR-3, with OVCAR-4 and in the assay on OVCAR-5 was > 100 µM (inactive) each time. Moreover, the GI50 in the assay on SF-539 is > 100 µM (inactive); in the assay with SK-MEL-2, > 100 µM (inactive); in the assay with SNB-75, > 100 µM (inactive); in the assay on SR it was 68.7 µM (inactive).

For the compound `CCOC(=O)c1cc2c(OC(C)=O)ccc(OC(C)=O)c2s1`, the GI50 with ACHN is 1.61 µM (inactive); with COLO 205 it was 2.17 µM (inactive); with HCT-116, 2.81 µM (inactive); in the assay with HCT-15 it was 1.75 µM; in the assay with HOP-92, 1.44 µM (inactive); in the assay with MOLT-4 it was 2.58 µM (inactive). Further, the GI50 was 1.93 µM (inactive) in the assay with Malme-3M; 12.9 µM (inactive) in the assay with NCI-H226; 2.2 µM (inactive) with NCI/ADR-RES; 1.61 µM (inactive) with OVCAR-3; 4.75 µM (inactive) with OVCAR-4; 6.19 µM (inactive) with OVCAR-5. In addition, the GI50 is 1.73 µM (inactive) in the assay with SF-539; 2.62 µM (inactive) with SK-MEL-2; 2.07 µM (inactive) in the assay on SNB-75; 3.27 µM (inactive) in the assay with SR; 1.82 µM (inactive) in the assay with UACC-62.

Consider `CC(C)C(=O)OCC1CCCN2CCCCC12` (stereo not given), for which the GI50 in the assay with ACHN was > 100 µM (inactive); with COLO 205, 51.1 µM (inactive); with HCT-116, 57.5 µM (inactive); in the assay on HCT-15, 53 µM; with HOP-92 it was > 100 µM (inactive); in the assay on MDA-N, > 100 µM (inactive). In addition, the GI50 in the assay on MOLT-4 was 50.8 µM (inactive); in the assay on Malme-3M, > 100 µM (inactive); with NCI-H226 it was > 100 µM (inactive); in the assay on NCI/ADR-RES, > 100 µM (inactive); in the assay on OVCAR-3, > 100 µM (inactive); in the assay with OVCAR-4, > 100 µM (inactive). Also, the GI50 with OVCAR-5 was > 100 µM (inactive); in the assay with SF-539, > 100 µM (inactive); in the assay on SK-MEL-2, > 100 µM (inactive); in the assay with SNB-75, > 100 µM (inactive); with UACC-62 it was 68.1 µM (inactive).

With `COC1(OC)CCN(Cc2ccccc2)C1=O`, the GI50 in the assay with ACHN is 6.28 µM (inactive); with COLO 205, 4.54 µM (inactive); in the assay with HCT-116, 3.68 µM (inactive); with HCT-15, 13.4 µM; in the assay on HOP-92 it was 11.1 µM (inactive); with MDA-N it was 10.7 µM (inactive). The GI50 in the assay on MOLT-4 was 2.55 µM (inactive); in the assay on Malme-3M, > 100 µM (inactive); with NCI-H226, 18.7 µM (inactive); in the assay with NCI/ADR-RES, 25.3 µM (inactive); in the assay with OVCAR-3, 11.4 µM (inactive); in the assay with OVCAR-4, 16 µM (inactive). Further, the GI50 in the assay with OVCAR-5 is 17.7 µM (inactive); in the assay on SF-539, 14 µM (inactive); with SK-MEL-2 it was 15.4 µM (inactive); with SNB-75, 16.2 µM (inactive); in the assay on UACC-62 it was 10.9 µM (inactive).

For the compound `Cn1c(=O)oc2cc(C(O)CN3CCN(Cc4ccc5c(c4)OCO5)CC3)ccc21` (stereo not given), the GI50 is > 100 µM (inactive) in the assay with ACHN; > 100 µM (inactive) with COLO 205; > 100 µM (inactive) in the assay with HCT-116; > 100 µM with HCT-15; > 100 µM (inactive) with HOP-92; > 100 µM (inactive) in the assay with MOLT-4. In addition, the GI50 with Malme-3M, in the assay with NCI-H226, with NCI/ADR-RES, in the assay on OVCAR-3, with OVCAR-4 and in the assay with OVCAR-5 was > 100 µM (inactive) throughout. The GI50 in the assay with SF-539 is > 100 µM (inactive); in the assay with SNB-75, 47 µM (inactive); in the assay with SR, > 100 µM (inactive); with UACC-62 it was > 100 µM (inactive).

For `c1cc(C[S+]2CCCC2)oc1C[S+]1CCCC1`, the GI50 with ACHN was > 100 µM (inactive); in the assay with COLO 205, > 100 µM (inactive); with HCT-116 it was > 100 µM (inactive); with HCT-15 it was > 100 µM; in the assay on MDA-N it was > 100 µM (inactive); in the assay with MOLT-4, > 100 µM (inactive). For the same compound, the GI50 in the assay on Malme-3M, in the assay with NCI/ADR-RES, with OVCAR-3, in the assay on OVCAR-4, in the assay with SF-539 and in the assay on SNB-75 was > 100 µM (inactive) throughout. In addition, the GI50 in the assay on UACC-62 is > 100 µM (inactive).

On to `COc1ccccc1/C=C/c1c(N)ncnc1Nc1cccc(Cl)c1`, for which the GI50 with ACHN was 6.56 µM (inactive); in the assay with HCT-116 it was 23.5 µM (inactive); in the assay with HCT-15 it was 15.9 µM; in the assay on HOP-92, 0.243 µM (active); in the assay with MDA-N, 25 µM (inactive); in the assay on MOLT-4, 0.311 µM (active). Besides, the GI50 was 30.5 µM (inactive) in the assay on Malme-3M; 17.4 µM (inactive) with NCI-H226; 25.2 µM (inactive) in the assay on OVCAR-3; 14.6 µM (inactive) with OVCAR-4; 31.8 µM (inactive) with OVCAR-5; 18.3 µM (inactive) in the assay on SF-539. For the same compound, the GI50 with SK-MEL-2 is 18.6 µM (inactive); with SNB-75, 9.53 µM (inactive); in the assay on SR, 0.132 µM (active); in the assay with UACC-62, 16.6 µM (inactive).

`COC(=O)c1cc(OCc2cc(OCc3ccc(Br)cc3)cc(OCc3ccc(Br)cc3)c2)cc(OCc2cc(OCc3ccc(Br)cc3)cc(OCc3ccc(Br)cc3)c2)c1`: the GI50 is > 100 µM (inactive) with ACHN; > 100 µM (inactive) in the assay on COLO 205; > 100 µM (inactive) in the assay on HCT-116; > 100 µM with HCT-15; > 100 µM (inactive) with HOP-92; > 100 µM (inactive) in the assay on MDA-N. In addition, the GI50 in the assay on MOLT-4, with Malme-3M, with NCI-H226, in the assay with NCI/ADR-RES, in the assay on OVCAR-3 and in the assay on OVCAR-4 was > 100 µM (inactive) in each case. Besides, the GI50 was > 100 µM (inactive) in the assay with OVCAR-5; 14.1 µM (inactive) with SF-539; > 100 µM (inactive) in the assay on SK-MEL-2; > 100 µM (inactive) in the assay on SNB-75; > 100 µM (inactive) in the assay on UACC-62.

As for `CN1N=C(c2ccncc2)OC1c1ccc(Cl)c(Cl)c1` (stereo not given), the GI50 in the assay on ACHN was > 100 µM (inactive); in the assay with COLO 205, > 100 µM (inactive); in the assay on HCT-116, > 100 µM (inactive); in the assay on HCT-15, > 100 µM; with HOP-92 it was > 100 µM (inactive); with MDA-N it was > 100 µM (inactive). In addition, the GI50 with MOLT-4 is 44.5 µM (inactive); with Malme-3M it was > 100 µM (inactive); with NCI-H226, > 100 µM (inactive); in the assay with NCI/ADR-RES it was > 100 µM (inactive); in the assay with OVCAR-3 it was 72.4 µM (inactive); in the assay with OVCAR-4, > 100 µM (inactive). Further, the GI50 in the assay with OVCAR-5, in the assay with SF-539, with SK-MEL-2 and in the assay on UACC-62 was > 100 µM (inactive) each time.

As for `COc1ccc(-n2sc3ncc(-c4ccccc4)cc3c2=O)cc1`, the GI50 was 21.6 µM (inactive) in the assay with ACHN; 56.4 µM (inactive) in the assay on COLO 205; 23.1 µM (inactive) with HCT-116; 35.6 µM in the assay with HCT-15; 42.5 µM (inactive) in the assay with HOP-92; 82.2 µM (inactive) with NCI-H226. Besides, the GI50 with NCI/ADR-RES was 72.9 µM (inactive); with OVCAR-3, 20.3 µM (inactive); with OVCAR-4, 23.3 µM (inactive); in the assay with OVCAR-5, 26.2 µM (inactive); in the assay on SK-MEL-2, > 100 µM (inactive); in the assay on SNB-75, 34.5 µM (inactive). Further, the GI50 in the assay with UACC-62 was 31 µM (inactive).

As to `CN(C)CCOC1(Cc2ccc(Cl)cc2Cl)CCC(C(C)(C)C)CC1` (stereo not given), the GI50 in the assay on ACHN is 2.27 µM (inactive); with COLO 205 it was 1.56 µM (inactive); in the assay with HCT-116, 1.95 µM (inactive); in the assay with MOLT-4, 1.85 µM (inactive); in the assay on Malme-3M, 1.73 µM (inactive); in the assay on NCI/ADR-RES it was 1.47 µM (inactive). For the same compound, the GI50 in the assay on OVCAR-3 is 2.42 µM (inactive); in the assay on OVCAR-4 it was 2.42 µM (inactive); with OVCAR-5, 1.86 µM (inactive); in the assay with SF-539, 2.02 µM (inactive); in the assay on SK-MEL-2, 1.16 µM (inactive); in the assay on SNB-75, 4.27 µM (inactive). Also, the GI50 with SR was 0.0266 µM (active); in the assay on UACC-62 it was 7.23 µM (inactive).

With `Cc1ccc2c(c1)C1(C)OC(CC(N)C1O)O2` (stereo not given), the GI50 in the assay with ACHN is > 100 µM (inactive); with COLO 205 it was > 100 µM (inactive); in the assay with HCT-116, > 100 µM (inactive); in the assay with HCT-15, > 100 µM; in the assay on MOLT-4 it was > 100 µM (inactive); in the assay on Malme-3M it was > 100 µM (inactive). Besides, the GI50 in the assay with NCI-H226 was > 100 µM (inactive); in the assay on OVCAR-3 it was > 100 µM (inactive); with SF-539, > 100 µM (inactive); in the assay with SK-MEL-2, > 100 µM (inactive); in the assay with SNB-75 it was 29.8 µM (inactive); with UACC-62 it was > 100 µM (inactive).
